Series [1] concerns the target human D3 receptor (Homo sapiens, UniProt P35462). Kind of series: Radioligand binding to cloned human D3 receptor expressed in HEK-293 EBNA cells ([3H]-spiperone).
Method: (§1) HEK293 EBNA cells were transiently transfected with expression plasmids encoding for the human D2 or D3 or for the human 5-HT2A receptor, respectively. The cells were harvested 48 h post-transfection, washed three times with cold PBS and stored at −80° C. prior to use. The pellet was suspended in cold 50 mM Tris-HCl buffer comprising 10 mM EDTA (pH 7.4) and was homogenized with a Polytron (Kinematica A G, Basel, Switzerland) for 20-30 sec at 12.000 rpm. After centrifugation at 48.000×g for 30 min at 4° C., the pellet was resuspended in cold 10 mM Tris-HCl buffer comprising 0.1 mM EDTA (pH 7.4), homogenized, and centrifuged as above. This pellet was further resuspended in a smaller volume of ice cold 10 mM Tris-HCl buffer comprising 0.1 mM EDTA (pH 7.4) and homogenized with a Polytron for 20-30 sec at 12.000 rpm. The protein content of this homogenate was determined with the Bio-Rad (Bradford) Protein Assay (Biorad Laboratories GmbH, München, Germany) according to the instructions of the manufacturer using gamma globulin as the standard. This homogenate was stored at −80° C. in aliquots and thawed immediately prior to use.
(§2) Aliquots of membrane preparations were thawed at RT, resupended in assay buffer (D2, D3: 50 mM Tris-HCl, 120 mM NaCl, 5 mM MgCl2, 1 mM EDTA, 5 mM KCl, 1.5 mM CaCl2, pH=7.4; 5-HT2A: 50 mM Tris-HCl, 10 mM MgCl2, 1 mM EGTA, pH=7.4), homogenized with a Polytron for 20-30 sec at 12.000 rpm and adjusted to a final concentration of approximately 7.5 μg protein/well (D2, D3) and 15 μg protein/well (5-HT2A), respectively.
(§3) The binding affinity (Ki) of the compounds was determined using radioligand binding. Membranes were incubated in a total volume of 200 μl with a fixed concentration of radioligand (final concentration approximately 0.7 nM [^3H]-spiperone for D2, 0.5 nM [^3H]-spiperone for D3, and 1.1 nM [^3H]-ketanserin for 5-HT2A) and ten concentrations of test compound in ranging between 10 μM-0.1 nM for 1 h at RT. At the end of the incubation, the reaction mixtures were filtered on to unifilter 96-well white microplates with bonded GF/C filters (Packard BioScience, Zürich, Switzerland; preincubated for 1 h in 0.1% polyethylenimine (PEI) in assay buffer) with a Filtermate 196 harvester (Packard BioScience) and washed 3 times with cold assay buffer. The nonspecific binding was determined with equally composed reaction mixtures in the presence of 10 μM unlabelled spiperone. Per well 45 μl of Microscint 40 (Perkin Elmer, Schwerzenbach, Switzerland) was added, plates for sealed, shaken for 20 min and counted for 3 min on a Topcount Microplate Scintillation Counter (Can berra Packard S A, Zürich, Switzerland) with quenching correction.
(§4) The CPM value for each duplicate of a concentration of competing compound was averaged (y1), then the % specific binding was calculated according to the equation (((y1−non-specific)/(total binding−non-specific))×100). Graphs were plotted with the % specific binding using XLfit, a curve fitting program that iteratively plots the data using Levenberg-Marquardt algorithm. The single site competition analysis equation used was y=A+((B−A)/(1+((x/C)D))), where y is the % specific binding, A is the minimum y, B is the maximum y, C is the IC50, x is the log 10 of the concentration of the competing compound and D is the slope of the curve (the Hill Coefficient). […] The affinity constant (Ki) was calculated using the Cheng-Prusoff equation Ki=(IC50/1+([L]/Kd), where [L] is the concentration of radioligand and Kd is the dissociation constant of the radioligand at the receptor as determined by the saturation isotherm.
Series [2] addresses T1, human D2 receptor (Homo sapiens, UniProt P14416).
T1 construct: expressed in transfected cells; host or cells: HEK293 EBNA cells, transient transfection; membrane preparation
Kind of series: Radioligand binding to cloned human D2 receptor expressed in HEK-293 EBNA cells ([3H]-spiperone). As to conditions: HEK293 EBNA cell membranes, approximately 0.7 nM [3H]-spiperone, 1 h at RT.

Series [3] deals with human 5-HT2A receptor (Homo sapiens, UniProt P28223). Kind of series: Radioligand binding to cloned human 5-HT2A receptor expressed in HEK-293 EBNA cells ([3H]-ketanserin).
human 5-HT2A receptor, sequence (P28223 whole entry): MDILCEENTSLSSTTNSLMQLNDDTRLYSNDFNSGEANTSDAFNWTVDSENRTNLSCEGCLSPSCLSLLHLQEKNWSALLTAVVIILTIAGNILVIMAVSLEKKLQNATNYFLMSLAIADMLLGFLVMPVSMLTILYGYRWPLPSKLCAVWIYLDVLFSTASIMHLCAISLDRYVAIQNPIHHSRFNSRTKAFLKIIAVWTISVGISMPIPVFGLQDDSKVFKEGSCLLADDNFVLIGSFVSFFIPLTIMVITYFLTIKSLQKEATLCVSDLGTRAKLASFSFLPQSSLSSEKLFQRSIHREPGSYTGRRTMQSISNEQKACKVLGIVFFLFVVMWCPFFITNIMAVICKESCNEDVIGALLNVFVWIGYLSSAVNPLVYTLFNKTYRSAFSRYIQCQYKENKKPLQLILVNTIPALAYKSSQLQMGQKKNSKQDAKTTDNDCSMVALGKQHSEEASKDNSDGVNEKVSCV
Method: as §1, §2, §3, §4

Structures are written as SMILES.

human D3 receptor, sequence (P35462 whole entry): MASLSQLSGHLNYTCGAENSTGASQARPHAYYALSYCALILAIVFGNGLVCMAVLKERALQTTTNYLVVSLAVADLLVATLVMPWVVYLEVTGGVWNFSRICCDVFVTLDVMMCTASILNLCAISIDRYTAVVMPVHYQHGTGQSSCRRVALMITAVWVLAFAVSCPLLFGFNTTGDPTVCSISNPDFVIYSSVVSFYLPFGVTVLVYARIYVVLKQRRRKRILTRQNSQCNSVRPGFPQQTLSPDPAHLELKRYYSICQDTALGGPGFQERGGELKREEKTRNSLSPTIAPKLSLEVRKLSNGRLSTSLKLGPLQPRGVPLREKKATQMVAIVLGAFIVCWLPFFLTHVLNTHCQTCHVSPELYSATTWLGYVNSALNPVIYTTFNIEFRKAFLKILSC
T1 sequence (P14416 whole entry): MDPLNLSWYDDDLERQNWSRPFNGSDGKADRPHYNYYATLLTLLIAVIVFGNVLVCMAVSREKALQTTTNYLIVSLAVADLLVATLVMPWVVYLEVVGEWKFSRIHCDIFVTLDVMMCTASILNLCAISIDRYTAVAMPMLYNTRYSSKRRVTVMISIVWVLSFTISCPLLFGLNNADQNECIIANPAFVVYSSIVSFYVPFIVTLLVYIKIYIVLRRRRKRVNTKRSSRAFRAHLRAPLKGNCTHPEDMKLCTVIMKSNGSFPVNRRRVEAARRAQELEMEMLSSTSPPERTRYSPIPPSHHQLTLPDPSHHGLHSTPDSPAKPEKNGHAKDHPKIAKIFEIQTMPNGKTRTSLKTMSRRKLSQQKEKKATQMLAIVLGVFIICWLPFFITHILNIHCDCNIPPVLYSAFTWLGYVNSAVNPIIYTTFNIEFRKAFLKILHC

A word on the Ki: it is a dissociation constant, usually derived from enzyme kinetics or from competition with a known ligand. The low end stands for higher affinity, the high end for lower affinity. Consider `CO[C@@H]1CC[C@@H](CC(=O)N[C@H]2CC[C@H](CCN3CCN(c4nccc5ccsc45)CC3)CC2)C1` (racemic) [Example 5, 2-(trans-3-Methoxy-cyclopentyl)-N-{trans-4-[2-(4-thieno[2,3-c]pyridin-7-yl-piperazin-1-yl)-ethyl]cyclohexyl}-acetamide], for which the Ki in series [1] came to 10 nM; in series [2], 433 nM; in series [3] it was 7.7 nM.
As a reminder, the melting point is the temperature of the solid-liquid transition. Regarding `O=C(CC1COCCO1)N[C@H]1CC[C@H](CCN2CCN(c3nccc4ccoc34)CC2)CC1` (mixture of isomers) [Example 15, trans-2-rac-[1,4]Dioxan-2-yl-N-{4-[2-(4-furo[2,3-c]pyridin-7-yl-piperazin-1-yl)-ethyl]-cyclohexyl}-acetamide], the melting point was 193 °C. In addition, in series [1], the Ki stood at 9.32 nM. This molecule gave a Ki in series [2] of 975 nM. In series [3], this molecule gave a Ki of 8.16 nM.
`O=C(CC1CCCO1)N[C@H]1CC[C@H](CCN2CCN(c3nccc4c3OCC4)CC2)CC1` (mixture of isomers) [Example 29, trans-N-(4-{2-[4-(2,3-Dihydro-furo[2,3-c]pyridin-7-yl)-piperazin-1-yl]-ethyl}-cyclohexyl)-2-rac-(tetrahydro-furan-2-yl)-acetamide]: the melting point was 173.5 °C. Moreover, in series [1], the Ki worked out at 9.31 nM. This molecule displayed a Ki in series [2] of 354 nM. Besides, the Ki in series [3] turned out to be 45.2 nM.
For `O=C(N[C@H]1CC[C@H](CCN2CCN(c3nccc4c3OCC4)CC2)CC1)C(O)C(F)(F)F` (mixture of isomers) [Example 58, trans-N-(4-{2-[4-(2,3-Dihydro-furo[2,3-c]pyridin-7-yl)-piperazin-1-yl]-ethyl}-cyclohexyl)-(RS)-3,3,3-trifluoro-2-hydroxy-propionamide], in that order: 185 °C, 13.9 nM, 712 nM and 32.9 nM.
For `O=C(N[C@H]1CC[C@H](CCN2CCN(c3nccc4c3OCC4)CC2)CC1)C1CCCO1` (mixture of isomers) [Example 82, (RS)-Tetrahydro-furan-2-carboxylic acid trans-(4-{2-[4-(2,3-dihydro-furo[2,3-c]pyridin-7-yl)-piperazin-1-yl]-ethyl}-cyclohexyl)-amide], in that order: 145 °C, 72.8 nM, 1140 nM and 20.4 nM.
On the same counts, the results for `CCC(C)C(=O)N[C@H]1CC[C@H](CCN2CCN(c3nccc4c3OCC4)CC2)CC1` (mixture of isomers) [Example 83, trans-N-(4-{2-[4-(2,3-Dihydro-furo[2,3-c]pyridin-7-yl)-piperazin-1-yl]-ethyl}-cyclohexyl)-(RS)-2-methyl-butyramide] are 196.5 °C, 17.3 nM, 714 nM and 48.9 nM.
The molecule `O=C(N[C@H]1CC[C@H](CCN2CCN(c3nccc4c3OCC4)CC2)CC1)C1CCCOC1` (mixture of isomers) [Example 97, (RS)-Tetrahydro-pyran-3-carboxylic acid trans-(4-{2-[4-(2,3-dihydro-furo[2,3-c]pyridin-7-yl)-piperazin-1-yl]-ethyl}-cyclohexyl)-amide] came in with a melting point of 203 °C. In series [1], this molecule came in with a Ki of 23.1 nM. The affinity in series [2] corresponds to a Ki of 604 nM. This molecule showed a Ki in series [3] of 27.8 nM.
Regarding `COC(C)CC(=O)N[C@H]1CC[C@H](CCN2CCN(c3nccc4c3OCC4)CC2)CC1` (mixture of isomers) [Example 101, trans-N-(4-{2-[4-(2,3-Dihydro-furo[2,3-c]pyridin-7-yl)-piperazin-1-yl]-ethyl}-cyclohexyl)-(RS)-3-methoxy-butyramide], the melting point turned out to be 168.5 °C. This molecule also registered a Ki in series [1] of 8.85 nM. In series [2], the affinity corresponds to a Ki of 633 nM. Moreover, the affinity in series [3] corresponds to a Ki of 55.5 nM.
For `CC(=O)N[C@H]1CC[C@H](CCN2CCN(c3nccc4ccsc34)CC2)CC1` [Example 1, N-{trans-4-[2-(4-Thieno[2,3-c]pyridin-7-yl-piperazin-1-yl)-ethyl]-cyclohexyl}-acetamide], the Ki in series [1] came to 2.3 nM; in series [2], 392 nM; in series [3], 11.9 nM.
On the same counts, the results for `CCC(=O)N[C@H]1CC[C@H](CCN2CCN(c3nccc4ccsc34)CC2)CC1` [Example 2, N-{trans-4-[2-(4-Thieno[2,3-c]pyridin-7-yl-piperazin-1-yl)-ethyl]-cyclohexyl}-propionamide] are 1.9 nM, 229 nM and 9.2 nM.
`COCCC(=O)N[C@H]1CC[C@H](CCN2CCN(c3nccc4ccsc34)CC2)CC1` [Example 3, 3-Methoxy-N-{trans-4-[2-(4-thieno[2,3-c]pyridin-7-yl-piperazin-1-yl)-ethyl]-cyclohexyl}-propionamide]: the Ki turned out to be 1.9 nM in series [1], 401 nM in series [2] and 10.6 nM in series [3].
`CO[C@H]1CC[C@H](CC(=O)N[C@H]2CC[C@H](CCN3CCN(c4nccc5ccsc45)CC3)CC2)CC1` [Example 4, 2-(trans-4-Methoxy-cyclohexyl)-N-{trans-4-[2-(4-thieno[2,3-c]pyridin-7-yl-piperazin-1-yl)-ethyl]-cyclohexyl}-acetamide]: the inhibition constant Ki is 14 nM in series [1], 739 nM in series [2] and 9.6 nM in series [3].
`CC(=O)N[C@H]1CC[C@H](CCN2CCN(c3nccc4c3OCC4)CC2)CC1` [Example 6, trans-N-(4-{2-[4-(2,3-Dihydro-furo[2,3-c]pyridin-7-yl)-piperazin-1-yl]-ethyl}-cyclohexyl)-acetamide] displayed a melting point of 195 °C. Besides, in series [1], the affinity, expressed as Ki, was 4 nM. In series [2], this molecule came in with a Ki of 472 nM. The molecule also yielded a Ki in series [3] of 58.2 nM.
For `O=C(N[C@H]1CC[C@H](CCN2CCN(c3nccc4c3OCC4)CC2)CC1)C1CCOCC1` [Example 7, trans-Tetrahydro-pyran-4-carboxylic acid (4-{2-[4-(2,3-dihydro-furo[2,3-c]pyridin-7-yl)-piperazin-1-yl]-ethyl}-cyclohexyl)-amide], in that order: 236.5 °C, 13.1 nM, 354 nM and 15.6 nM.
On the same counts, the results for `O=C(CC1CCOCC1)N[C@H]1CC[C@H](CCN2CCN(c3nccc4c3OCC4)CC2)CC1` [Example 8, trans-N-(4-{2-[4-(2,3-Dihydro-furo[2,3-c]pyridin-7-yl)-piperazin-1-yl]-ethyl}-cyclohexyl)-2-(tetrahydro-pyran-4-yl)-acetamide] are 222.5 °C, 7.49 nM, 1480 nM and 48.9 nM.
For `COCCC(=O)N[C@H]1CC[C@H](CCN2CCN(c3nccc4c3OCC4)CC2)CC1` [Example 9, trans-N-(4-{2-[4-(2,3-Dihydro-furo[2,3-c]pyridin-7-yl)-piperazin-1-yl]-ethyl}-cyclohexyl)-3-methoxy-propionamide], in that order: 180 °C, 5.14 nM, 991 nM and 67.5 nM.
`CC(=O)N[C@H]1CC[C@H](CCN2CCN(c3nccc4ccoc34)CC2)CC1` [Example 10, trans-N-{4-[2-(4-Furo[2,3-c]pyridin-7-yl-piperazin-1-yl)-ethyl]-cyclohexyl}-acetamide] showed a melting point of 157 °C. In addition, the Ki in series [1] worked out at 6.44 nM. Moreover, the Ki in series [2] came out at 684 nM. Moreover, the Ki in series [3] was determined as 18.8 nM.
For `O=C(N[C@H]1CC[C@H](CCN2CCN(c3nccc4ccoc34)CC2)CC1)C1CCOCC1` [Example 11, Tetrahydro-pyran-4-carboxylic acid trans-{4-[2-(4-furo[2,3-c]pyridin-7-yl-piperazin-1-yl)-ethyl]-cyclohexyl}-amide], in that order: 211 °C, 22.6 nM, 511 nM and 7.29 nM.
`O=C(CC1CCOCC1)N[C@H]1CC[C@H](CCN2CCN(c3nccc4ccoc34)CC2)CC1` [Example 12, trans-N-{4-[2-(4-Furo[2,3-c]pyridin-7-yl-piperazin-1-yl)-ethyl]-cyclohexyl}-2-(tetrahydro-pyran-4-yl)-acetamide] returned a melting point of 213 °C. In series [1], this molecule yielded a Ki of 14.7 nM. The affinity in series [2], expressed as Ki, was 1150 nM. In series [3], affinity was put at a Ki of 21.7 nM.
For `COCCC(=O)N[C@H]1CC[C@H](CCN2CCN(c3nccc4ccoc34)CC2)CC1` [Example 13, trans-N-{4-[2-(4-Furo[2,3-c]pyridin-7-yl-piperazin-1-yl)-ethyl]-cyclohexyl}-3-methoxy-propionamide], in that order: 146 °C, 7.85 nM, 1130 nM and 20.7 nM.
For `CCC(=O)N[C@H]1CC[C@H](CCN2CCN(c3nccc4ccoc34)CC2)CC1` [Example 14, trans-N-{4-[2-(4-Furo[2,3-c]pyridin-7-yl-piperazin-1-yl)-ethyl]-cyclohexyl}-propionamide], in that order: 187.5 °C, 3.57 nM, 502 nM and 9.48 nM.
As for `COCC(=O)N[C@H]1CC[C@H](CCN2CCN(c3nccc4ccoc34)CC2)CC1` [Example 16, trans-N-{4-[2-(4-Furo[2,3-c]pyridin-7-yl-piperazin-1-yl)-ethyl]-cyclohexyl}-2-methoxy-acetamide], the melting point is 132 °C. Besides, the Ki in series [1] turned out to be 17.7 nM. Further, in series [2], the affinity corresponds to a Ki of 1230 nM. Moreover, in series [3], the Ki was found to be 9.97 nM.
For `O=C(Cc1ccc2c(c1)OCO2)N[C@H]1CC[C@H](CCN2CCN(c3nccc4c3OCC4)CC2)CC1` [Example 80, trans-2-Benzo[1,3]dioxol-5-yl-N-(4-{2-[4-(2,3-dihydro-furo[2,3-c]pyridin-7-yl)-piperazin-1-yl]-ethyl}-cyclohexyl)-acetamide], the melting point is 187 °C. The same molecule showed a Ki in series [1] of 6.08 nM. In addition, in series [3], the Ki was 48.5 nM.
